Consider 29 compounds from US6620828B2, “Thiazole compounds and pharmaceutical compositions for inhibiting protein kinases and methods for their use” (Agouron Pharmaceuticals, Inc., priority 1999, dated 2003).

Common to all, as to type: biochemical
The target in test [1] is CDK2/Cyclin A complex (Homo sapiens, UniProt P24941). Put plainly: CDK2/Cyclin A assay. Particulars: 1.0 μM; combinatorial library compounds. Summed up:
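Radiometric assay: 150 nM CDK2/cyclin A (insect-cell CDK2, truncated cyclin A) phosphorylates His-tagged Rb fragment (residues 386-928) with 25 μM ATP plus [32P]ATP, pH 7.4 HEPES, 2% DMSO, 30 °C for 20 min. Filter-captured product counted by phosphorimager; apparent Ki from competitive or tight-binding inhibition fits.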

Test [2] has as its target T1, phosphorylated VEGF-R2Δ50 (FLVK-P) (Homo sapiens, UniProt P35968, DEL940-989/E990V).
T1 construct: VEGF-R2Δ50 contains residues 806-939 and 990-1171; made in house; host or cells: baculovirus/insect cells
Put plainly: VEGF-R2 coupled spectrophotometric (FLVK-P) assay. The following applies: read-out: VEGF % inhibition at 20 μM, 20 μM; combinatorial library compounds. Summed up:
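Baculovirus-expressed human VEGF-R2Δ50 (residues 806-939/990-1171, E990V) was autophosphorylated with 3 mM ATP, 40 mM MgCl2 for 2 h at 4° C. ADP formation was coupled via PK/LDH to NADH oxidation, read at 340 nm, with 5.1 mM poly(E4Y1), 1 mM ATP, 25 mM MgCl2, Hepes pH 7.5. Ki came from activity across compound concentrations.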

Test [3] concerns the target T2, FL-CHK1 (Homo sapiens, UniProt O14757).
T2 construct: C-terminally His-tagged full-length human CHK1 (FL-CHK1); 6xHis (C); made in house; host or cells: baculovirus/insect cells
T2 sequence (O14757 1-476): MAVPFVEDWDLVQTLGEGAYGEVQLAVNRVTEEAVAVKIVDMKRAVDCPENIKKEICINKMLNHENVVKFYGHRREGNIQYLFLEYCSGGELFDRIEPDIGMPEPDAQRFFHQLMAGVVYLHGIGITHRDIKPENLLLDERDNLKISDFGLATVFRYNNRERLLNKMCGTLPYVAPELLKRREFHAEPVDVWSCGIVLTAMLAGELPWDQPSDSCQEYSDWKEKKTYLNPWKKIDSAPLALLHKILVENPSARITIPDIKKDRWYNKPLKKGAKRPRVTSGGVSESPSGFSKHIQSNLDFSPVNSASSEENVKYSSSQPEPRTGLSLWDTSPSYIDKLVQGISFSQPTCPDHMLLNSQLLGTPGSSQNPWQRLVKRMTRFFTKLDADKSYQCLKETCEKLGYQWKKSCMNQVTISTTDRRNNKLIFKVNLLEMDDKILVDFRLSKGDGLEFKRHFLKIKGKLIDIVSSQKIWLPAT
Kind of test: CHK1 assay. The following applies: 20 μM; combinatorial library compounds. A digest of the protocol: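 Full-length human CHK1 with C-terminal 6×His tag, made in baculovirus/insect cells, 10 nM, phosphorylating 0.125 mM Syntide-2 with 0.15 mM ATP in 50 mM Tris pH 7.5, 25 mM MgCl2, 400 mM NaCl. PK/LDH-coupled NADH oxidation read at 340 nm. Ki from initial rates over varied compound concentrations.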

The target in test [4] is T3, CDK4/Cyclin D3 complex (Homo sapiens, UniProt P11802).
T3 construct: made in house; host or cells: insect cells co-infected with baculovirus vectors
Kind of test: CDK4/Cyclin D assay. The following applies: 1.0 μM; combinatorial library compounds. A digest of the protocol:
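Insect-cell-expressed CDK4/cyclin D3 (50 nM) phosphorylating His-tagged Rb fragment (residues 386-928) with 25 μM [^32P]ATP in HEPES pH 7.4, MgCl2, 2% DMSO; 20 min at 30 °C, EDTA stop. Filter-captured 32P by phosphorimager; apparent Ki from competitive or tight-binding inhibition fits.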

T1 sequence (P35968 with tags, fused parts or gaps DEL940-989/E990V limits assumed): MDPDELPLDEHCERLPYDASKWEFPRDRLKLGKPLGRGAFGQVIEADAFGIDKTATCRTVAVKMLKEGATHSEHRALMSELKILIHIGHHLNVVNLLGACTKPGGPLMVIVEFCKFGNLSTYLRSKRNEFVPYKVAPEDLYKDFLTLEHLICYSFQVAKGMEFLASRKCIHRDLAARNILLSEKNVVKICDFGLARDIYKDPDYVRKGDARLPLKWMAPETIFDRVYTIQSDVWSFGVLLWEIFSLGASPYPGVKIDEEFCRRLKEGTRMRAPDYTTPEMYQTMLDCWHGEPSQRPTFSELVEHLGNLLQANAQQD
T3 sequence (P11802 whole entry): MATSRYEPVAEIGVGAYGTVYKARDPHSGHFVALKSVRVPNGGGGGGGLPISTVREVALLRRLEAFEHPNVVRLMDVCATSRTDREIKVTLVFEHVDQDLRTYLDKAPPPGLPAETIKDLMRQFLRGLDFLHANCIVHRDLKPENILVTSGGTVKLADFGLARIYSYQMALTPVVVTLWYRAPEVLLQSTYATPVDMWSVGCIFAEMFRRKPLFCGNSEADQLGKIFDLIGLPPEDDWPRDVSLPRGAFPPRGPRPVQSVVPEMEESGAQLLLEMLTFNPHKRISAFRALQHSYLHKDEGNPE
T3 sequence (P30281 whole entry partner): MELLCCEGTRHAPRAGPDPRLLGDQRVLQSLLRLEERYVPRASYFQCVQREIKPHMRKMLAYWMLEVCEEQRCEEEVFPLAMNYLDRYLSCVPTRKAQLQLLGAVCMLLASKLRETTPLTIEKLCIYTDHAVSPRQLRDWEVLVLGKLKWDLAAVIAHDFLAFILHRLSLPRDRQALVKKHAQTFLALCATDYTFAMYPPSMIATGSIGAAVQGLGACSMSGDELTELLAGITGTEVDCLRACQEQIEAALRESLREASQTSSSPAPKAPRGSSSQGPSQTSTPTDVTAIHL

Turning to `CN(C)c1ccc(Nc2nc(N)c(-c3nc(-c4ccc(C(F)(F)F)cc4)cs3)s2)cc1`, the inhibition (as a rule, the relative decrease from the control value, in per cent) at 1 µM in test [1] amounted to 33.4%; in test [4], 60.3%. The inhibition at 20 µM came to 5% in test [2] and 13.1% in test [3].

As to `Nc1nc(Nc2ccc(S(N)(=O)=O)cc2)sc1-c1nc(-c2ccc(F)c(F)c2)cs1`, the inhibition at 1 µM in test [1] is 12.4%; in test [4], -5.3%. Also, the inhibition at 20 µM is 38% in test [2] and 17.5% in test [3].

Take `CC(C)c1ccc(Nc2nc(N)c(-c3nc(-c4ccccc4[N+](=O)[O-])cs3)s2)cc1`: the values for the inhibition at 1 µM in test [1] and in test [4] were 17.7% and 63%, respectively. The inhibition at 20 µM in test [2] was 16%; in test [3], 32.2%.

Take `Nc1nc(Nc2ccc(S(N)(=O)=O)cc2)sc1-c1nc(-c2ccc(Cl)c([N+](=O)[O-])c2)cs1`: the inhibition at 1 µM is 17.6% in test [1] and -28.2% in test [4]. The inhibition at 20 µM in test [2] was -2%; in test [3], 13.1%.

On to `CCc1cc2c(cc1-c1csc(-c3sc(Nc4ccc(S(N)(=O)=O)cc4)nc3N)n1)C(C)(C)CCC2(C)C`, for which the inhibition at 1 µM is 14.1% in test [1] and -3.5% in test [4]. For the same compound, the inhibition at 20 µM is -2% in test [2] and 1.3% in test [3].

For `COc1cccc(-c2csc(-c3sc(Nc4ccc(C(C)C)cc4)nc3N)n2)c1`, the inhibition at 1 µM in test [1] came out at 16%; in test [4], 49.3%. The inhibition at 20 µM was 10% in test [2] and 3.8% in test [3].

Turning to `Cc1c(C)c(C)c(-c2csc(-c3sc(Nc4ccc(C(C)C)cc4)nc3N)n2)c(C)c1C`, the inhibition at 1 µM in test [1] turned out to be 39.9%; in test [4], 84.7%. Besides, the inhibition at 20 µM is 59% in test [2] and 34.9% in test [3].

For the compound `Cc1ccc(-c2csc(-c3sc(Nc4ccc(C(C)C)cc4)nc3N)n2)c(C)c1`, the inhibition at 1 µM in test [1] turned out to be 23.3%; in test [4] it was 50%. Also, the figures for the inhibition at 20 µM in test [2] and in test [3] were 14% and -2.5%, respectively.

For `COc1ccc2nc(-c3ccccc3)c(-c3csc(-c4sc(Nc5ccc(N(C)C)cc5)nc4N)n3)cc2c1`, the inhibition at 1 µM in test [1] worked out at 24.6%; in test [4], 81.8%. Besides, the inhibition at 20 µM in test [2] was found to be 14%; in test [3], 26%.

On to `CN(C)c1ccc(Nc2nc(N)c(-c3nc(-c4cccc(OC(=O)c5ccccc5)c4)cs3)s2)cc1`, for which the inhibition at 1 µM in test [1] was 0.6%; in test [4], 57.5%. Moreover, the inhibition at 20 µM was 16% in test [2] and 23.3% in test [3].

`Nc1nc(Nc2ccc(S(N)(=O)=O)cc2)sc1-c1nc(-c2ccc(-c3ccccc3)cc2)cs1` [drawing 404]: the results for the inhibition at 1 µM in test [1] and in test [4] were 11.2% and -11.3%, respectively. Further, the inhibition at 20 µM in test [2] is -3%; in test [3], 12.3%.

As for `Cc1ccc(-c2csc(-c3sc(Nc4ccc(S(N)(=O)=O)cc4)nc3N)n2)c(C)c1`, the inhibition at 1 µM is 19.6% in test [1] and -13.5% in test [4]. Further, the results for the inhibition at 20 µM in test [2] and in test [3] were 50% and 0.2%, respectively.

With `CN(C)c1ccc(Nc2nc(N)c(-c3nc(-c4cc(C(=O)C(Cl)(Cl)Cl)n(C)c4)cs3)s2)cc1`, the inhibition at 1 µM in test [1] stood at 36.7%; in test [4], 45.2%. Further, the inhibition at 20 µM in test [2] is 3%; in test [3] it was 5.2%.

Turning to `CC(C)c1ccc(Nc2nc(N)c(-c3nc(-c4ccc(-c5ccccc5)cc4)cs3)s2)cc1`, the inhibition at 1 µM in test [1] is 9.6%; in test [4], 0.7%. In addition, the inhibition at 20 µM is -9% in test [2] and 3.2% in test [3].

Consider `Cc1cc(-c2csc(-c3sc(Nc4ccc(C(C)C)cc4)nc3N)n2)c(C)s1`, for which the results for the inhibition at 1 µM in test [1] and in test [4] were 17.5% and 76.5%, respectively. In addition, the results for the inhibition at 20 µM in test [2] and in test [3] were 50% and 27.4%, respectively.

In the case of `CC(=O)Oc1ccccc1-c1csc(-c2sc(Nc3ccc(N(C)C)cc3)nc2N)n1`, the figures for the inhibition at 1 µM in test [1] and in test [4] were 27.8% and 48.5%, respectively. In addition, the inhibition at 20 µM in test [2] is 24%; in test [3], -4.6%.

As to `Nc1nc(Nc2ccc(S(N)(=O)=O)cc2)sc1-c1nc(-c2csc3ccccc23)cs1`, the inhibition at 1 µM came to 48.9% in test [1] and 44.1% in test [4]. For the same compound, the inhibition at 20 µM in test [2] came to 10%; in test [3], 0.4%.

Turning to `CC(C)c1ccc(Nc2nc(N)c(-c3nc(-c4cc(Br)c(Cl)s4)cs3)s2)cc1`, the inhibition at 1 µM came to 26% in test [1] and 84.7% in test [4]. For the same compound, the figures for the inhibition at 20 µM in test [2] and in test [3] were 25% and 9.2%, respectively.

`Nc1nc(Nc2ccc(S(N)(=O)=O)cc2)sc1-c1nc(-c2ccc(CC(=O)O)s2)cs1`: the results for the inhibition at 1 µM in test [1] and in test [4] were 51.6% and 65%, respectively. For the same compound, the inhibition at 20 µM is 11% in test [2] and 11.3% in test [3].

As to `Cc1ccc(-c2csc(-c3sc(Nc4ccc(S(N)(=O)=O)cc4)nc3N)n2)cc1` [drawing 395], the inhibition at 1 µM in test [1] was 20.5%; in test [4], -9.6%. Further, the inhibition at 20 µM was 33% in test [2] and -2.1% in test [3].

Regarding `CN(C)c1ccc(Nc2nc(N)c(-c3nc(-c4ccc[nH]4)cs3)s2)cc1`, the inhibition at 1 µM amounted to 31.7% in test [1] and 63.6% in test [4]. The inhibition at 20 µM in test [2] turned out to be 28%; in test [3], 32.5%.

On to `Cc1onc(-c2ccccc2)c1-c1csc(-c2sc(Nc3ccc(S(N)(=O)=O)cc3)nc2N)n1`, for which the inhibition at 1 µM in test [1] was -4.5%; in test [4], -3.9%. For the same compound, the inhibition at 20 µM in test [2] was -2%; in test [3] it was 2.9%.

In the case of `Cc1c(-c2csc(-c3sc(Nc4ccc(S(N)(=O)=O)cc4)nc3N)n2)sc2ccc(Cl)cc12` [drawing 424], the inhibition at 1 µM in test [1] turned out to be 67%; in test [4] it was 59.9%. Also, the inhibition at 20 µM in test [2] was determined as 23%. Moreover, the “CHK1 % Inhibition at 20 μM” value in test [3] was 28.4%.

As to `CCc1cc2c(cc1-c1csc(-c3sc(Nc4ccc(N(C)C)cc4)nc3N)n1)C(C)(C)CCC2(C)C`, the inhibition at 1 µM in test [1] came to 20.5%; in test [4] it was 70.9%. For the same compound, the results for the inhibition at 20 µM in test [2] and in test [3] were 17% and 18.8%, respectively.

On to `COc1ccc(-c2csc(-c3sc(Nc4ccc(C(C)C)cc4)nc3N)n2)cc1` [drawing 462], for which the inhibition at 1 µM came to 27.8% in test [1] and 60.9% in test [4]. The inhibition at 20 µM in test [2] amounted to 19%. For the same compound, in test [3], the “CHK1 % Inhibition at 20 μM” value came out at 4.7%.

Consider `CCOC(=O)c1cc(-c2csc(-c3sc(Nc4ccc(C(C)C)cc4)nc3N)n2)on1`, for which the inhibition at 1 µM in test [1] was 15%; in test [4], 28.7%. Besides, the inhibition at 20 µM in test [2] was 9%; in test [3], -5.7%.

On to `CC(C)c1ccc(Nc2nc(N)c(-c3nc(-c4ccc5oc6ccccc6c5c4)cs3)s2)cc1`, for which the inhibition at 1 µM in test [1] is -4.3%; in test [4], 75.5%. Further, the inhibition at 20 µM in test [2] was 39%; in test [3], 18.9%.

Turning to `CC(C)c1ccc(Nc2nc(N)c(-c3nc(-c4cc(-c5ccc(Cl)c(Cl)c5)no4)cs3)s2)cc1`, the figures for the inhibition at 1 µM in test [1] and in test [4] were 18.5% and -26.5%, respectively. For the same compound, the inhibition at 20 µM in test [2] is -5%; in test [3], -9%.

With `Cc1ccc(-c2csc(-c3sc(Nc4ccc(N(C)C)cc4)nc3N)n2)cc1`, the inhibition at 1 µM in test [1] is 17.7%; in test [4], 61.6%. Moreover, the inhibition at 20 µM in test [2] was 16%; in test [3], 15.2%.
